Experimental findings from patent publication US20100290997A1, “Imaging Agents and Methods” (priority 2006, published 2010) are described below.

The structures appear in SMILES notation. Where a SMILES comes first, the peptide text is derived from it.

One series has as its target T1, cathepsin B (Homo sapiens, UniProt P07858).
T1 construct: purchased Sigma-Aldrich (St. Louis, Mo.)
Nature of the series: Inhibition of biodegradation of L-PG-NIR813 in presence of CB inhibitor II. In kind it is biochemical. Conditions: 0.2 unit/mL cathepsin B, 10 μM eq. NIR813. Here is the method: L-PG-NIR813 with different loading 8.3% and 10%, CB and CB inhibitor II were dissolved in assay buffer respectively. The reaction mixture (100 μL) in each well was composed of 10 μM L-PG-NIR813 probe and 0.2 units/mL CB. The CB inhibitor II was serially diluted in the assay buffer to obtain concentrations ranging from 240 μM to 77 nM. The microwell assay plate was incubated at 37° C. for 24 hr. At predetermined time intervals, the inhibition of biodegradation was examined using Li-Cor Odyssey imager.

A short description of series [1]: Determination of relaxivity (T1, T2) at 4.7 Tesla. The class given is physicochemical. Conditions: 4.7T MRI experimental scanner. How it is done:
Solutions of PG-Benz-DTPA-Gd-IR783 were prepared in water at gadolinium concentrations of 0.005, 0.01, 0.02, 0.04, 0.08, and 0.16 mM. Spin lattice (T1) and spin-spin (T2) relaxivities were measured at 4.7 Tesla on 4.7T Bruker Biospec 47/40USR […] using inversion recovery and mutiecho T2-weight pulse sequences. Relaxivities (R1 or R2 in mM^−1s^−1) were obtained from linear least square determination of the slopes of 1/T1 vs [Gd] or 1/T2 vs [Gd] plots.
Solutions of PG-DTPA-Gd-NIR813 were prepared in water at gadolinium concentrations of 0.005, 0.01, 0.02, 0.04, 0.08, and 0.16 mM. Spin lattice (T1) and spin-spin (T2) relaxivities were measured at 4.7 Tesla on 4.7T Bruker Biospec (Bruker Biospin Corp., Billerica, Mass.) using inversion recovery and mutiecho T2-weight pulse sequences. Relaxivities (R1 or R2 in mM^−1s^−1) were obtained from linear least square determination of the slopes of 1/T1 vs [Gd] or 1/T2 vs [Gd] plots.

The nature of series [2]: Fluorescence emission spectra. The class given is physicochemical. The settings on record: methanol solution; for emission wavelength (maximum): excited at 766 nm. Here is the method:
Analytical high-performance liquid chromatography (HPLC) was carried out on an Agilent 1100 system (Wilmington, Del.) equipped with a Vydac peptide and protein analytic C-18 column (Anaheim, Calif.). Sample was eluted with water and acetonitrile containing 0.1% TFA varying from 10% to 80% over 30 min. Fluorescence intensity was measured by Spex Fluorolog spectrofluorimeter (Jobin Yvon Inc, Edison, N.J.).
The fluorescence emission spectra of the synthesized contrast agent was obtained using a Spex Fluorolog spectrofluorimeter (Horiba Yvon Jobin, N.J.).

Take `CC(=O)N[C@@H](CC(C)C)C(=O)N[C@H](C(=O)N[C@H](C=O)CCCCN)C(C)C` [CB inhibitor, Ac-LVK-CHO] (Ac-Leu-Val-Lys-aldehyde): on cathepsin B, the “inhibition of PG-NIR813 degradation by CB” value is reported as “inhibited by CB inhibitor in a dose-dependent manner”.
Turning to `O=C([O-])CN(CCN(CC(=O)[O-])CC(=O)O)CCN(CC(=O)[O-])CC(=O)O.[Gd+3]` [DTPA-Gd], the “T1 relaxivity (r1)” value in series [1] was 4.8 mmol⁻¹ s⁻¹.
For the compound `CC1(C)C(=CC=C2CCCC(C=CC3=[N+](CCCCS(=O)(=O)[O-])c4ccccc4C3(C)C)=C2Cl)N(CCCCS(=O)(=O)[O-])c2ccccc21.[Na+]` [IR783], in series [2], the Stokes shift was 32 nm, the excitation wavelength was determined as 766 nm and the “emission wavelength (maximum)” value is 798 nm.
The like results for `CC1(C)C(/C=C/C2=C(Sc3ccc(C(=O)NCCCCCN)cc3)C(=C/C=C3/N(CCCCS(=O)(=O)O)c4ccccc4C3(C)C)/CCC2)=[N+](CCCCS(=O)(=O)O)c2ccccc21` [NIR813, IR-783-S-Ph-CONH(CH2)5NH2] were, in that order, 47 nm, 766 nm and 813 nm.
